Reference: paper PMC3575795 (Nucleic Acids Research, 2012)

Biological target: T1, MfpB (Mycobacterium fluoroquinolone resistance protein B) (Mycolicibacterium smegmatis, UniProt A0QSX9)
T1 sequence (A0QSX9 1-193): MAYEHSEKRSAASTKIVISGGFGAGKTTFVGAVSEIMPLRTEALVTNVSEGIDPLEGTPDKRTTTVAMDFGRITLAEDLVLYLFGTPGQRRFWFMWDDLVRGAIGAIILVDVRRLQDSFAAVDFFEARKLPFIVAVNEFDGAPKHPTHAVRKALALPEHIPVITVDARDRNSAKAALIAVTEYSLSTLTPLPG
Test: isothermal titration calorimetry
Type: binding

Nc1nc2c(ncn2[C@@H]2O[C@H](COP(=O)(O)OP(=O)(O)O)[C@@H](O)[C@H]2O)c(=O)[nH]1 [GDP]
Kd: 10.5 ± 2.9 nM

Nc1nc2c(ncn2[C@@H]2O[C@H](COP(=O)(O)OP(=O)(O)OP(O)(O)=S)[C@@H](O)[C@H]2O)c(=O)[nH]1 [GTP-γ-S]
Kd: 11.8 ± 3.2 nM
